Test results: US20230310428A1, “EGFR INHIBITOR AND PREPARATION METHOD AND USE THEREOF” (HONGYUN BIOTECH CO., LTD., priority 2020, published 2023)

Experiments:
Experiment in all cases: Growth inhibitory activity of compounds on BaF3 cell lines stably transfected with kinase (MTS, 48 h)
Format in all cases: cell-based
[1] = molecular target: T1, various mutants of kinase EGFR (BaF3 cell lines stably transfected with kinase) (Homo sapiens, UniProt P00533, L858R/T790M); conditions: BaF3 cells stably transfected with EGFR L858R/T790M, read-out: IC50, growth inhibition, L858R/T790M
T1 construct: expressed in transfected cells; host or cells: BaF3
T1 sequence (P00533 25-1210 T790M/L858R): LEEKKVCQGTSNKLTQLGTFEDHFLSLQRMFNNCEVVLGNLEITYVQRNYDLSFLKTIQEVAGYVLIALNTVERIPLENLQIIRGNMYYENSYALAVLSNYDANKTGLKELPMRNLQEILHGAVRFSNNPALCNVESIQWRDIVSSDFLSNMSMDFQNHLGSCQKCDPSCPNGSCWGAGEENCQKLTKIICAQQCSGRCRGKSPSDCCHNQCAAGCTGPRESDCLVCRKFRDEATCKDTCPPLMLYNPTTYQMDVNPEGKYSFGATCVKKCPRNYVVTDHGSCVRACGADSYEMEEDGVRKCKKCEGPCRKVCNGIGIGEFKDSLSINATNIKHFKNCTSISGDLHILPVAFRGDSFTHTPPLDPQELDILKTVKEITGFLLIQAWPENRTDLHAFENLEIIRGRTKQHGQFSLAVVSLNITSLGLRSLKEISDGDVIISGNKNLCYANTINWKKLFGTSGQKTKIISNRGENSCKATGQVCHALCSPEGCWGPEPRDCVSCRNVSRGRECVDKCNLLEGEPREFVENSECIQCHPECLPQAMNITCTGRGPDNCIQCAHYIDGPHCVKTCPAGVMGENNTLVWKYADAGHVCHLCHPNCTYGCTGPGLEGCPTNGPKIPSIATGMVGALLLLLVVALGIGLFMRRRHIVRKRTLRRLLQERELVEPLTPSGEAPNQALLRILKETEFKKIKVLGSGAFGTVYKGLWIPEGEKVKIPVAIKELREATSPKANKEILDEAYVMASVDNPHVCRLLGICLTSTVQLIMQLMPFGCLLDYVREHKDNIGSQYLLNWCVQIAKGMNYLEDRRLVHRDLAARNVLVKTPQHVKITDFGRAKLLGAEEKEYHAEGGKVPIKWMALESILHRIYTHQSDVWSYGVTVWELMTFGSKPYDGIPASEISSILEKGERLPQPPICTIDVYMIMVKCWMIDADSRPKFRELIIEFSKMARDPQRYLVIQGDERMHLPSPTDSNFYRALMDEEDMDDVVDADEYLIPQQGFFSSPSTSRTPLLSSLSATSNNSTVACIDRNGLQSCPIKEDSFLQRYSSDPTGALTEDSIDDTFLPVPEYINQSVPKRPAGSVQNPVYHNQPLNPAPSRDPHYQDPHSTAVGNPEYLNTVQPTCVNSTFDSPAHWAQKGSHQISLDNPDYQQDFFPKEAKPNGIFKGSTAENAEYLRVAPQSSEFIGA
Description: (§1) The activity of compounds against various mutants of kinase EGFR was evaluated by their effect of inhibiting growth of BaF3 cell lines stably transfected with kinase. The specific test method was given as follows:
(§2) 1) Culture medium: DMEM (Dulbecco’s modified eagle medium) or RPMI 1640 (containing 10% fetal bovine serum, 100 µg/mL ampicillin, 100 µg/mL streptomycin).
(§3) 2) Reagent: MTS reaction solution (containing 2 mg/mL of MTS [3-(4,5-dimethylthiazol-2-yl)-5-(3-carboxymethoxyphenyl)-2-(4-sulfophenyl)-2H-tetrazoliu m, inner Salt]; 100 µg/mL of PES ([…])).
(§4) 3) Compound test: cells were incubated into a 96-well culture plate, the volume of cytosol was 90 µL, and then 10 µL of the compound at each gradient concentration was added. That is, the highest concentration was 10 µM, which was diluted stepwise by ⅓, and 8 concentration points were set in total; 0.1% DMSO (dimethyl sulfoxide) was contained in the system. The cell plate with uniformly mixed compound was cultured in a cell culture incubator (37° C.; 5% CO2) for 48 h, then 20 µL of MTS reaction solution was added, uniformly mixed and incubated in the cell culture incubator (37° C.; 5% CO2) for 1-4 h. OD values at 490 nm were measured by a microplate reader (VARIOSKAN FLASH, Thermo). Two parallels were set in each group of experiments, with 0.1% (a final concentration) DMSO as a negative control, and a culture medium without cells and compounds as a blank control. The cell growth inhibition rate was calculated by the following formula: […]
(§5) 4) IC50 calculation: The semi-inhibitory concentration of the compounds acting on cells was calculated using GradPad Prism 5 software according to the measured cell growth inhibition rate.

[2] = molecular target: T2, various mutants of kinase EGFR (BaF3 cell lines stably transfected with kinase) (Homo sapiens, UniProt P00533, T790M/C797S, form not given); conditions: BaF3 cells stably transfected with EGFR Δ19Del/T790M/C797S, read-out: IC50, growth inhibition, Δ19Del/T790M/C797S
T2 construct: other: BaF3 cells stably transfected with EGFR Δ19Del/T790M/C797S; MTS, 48; other: BaF3 cell line stably transfected with EGFR Δ19Del/T790M/C7
T2 sequence (P00533 with tags, fused parts or gaps DEL746-750/T790M/C797S, form open): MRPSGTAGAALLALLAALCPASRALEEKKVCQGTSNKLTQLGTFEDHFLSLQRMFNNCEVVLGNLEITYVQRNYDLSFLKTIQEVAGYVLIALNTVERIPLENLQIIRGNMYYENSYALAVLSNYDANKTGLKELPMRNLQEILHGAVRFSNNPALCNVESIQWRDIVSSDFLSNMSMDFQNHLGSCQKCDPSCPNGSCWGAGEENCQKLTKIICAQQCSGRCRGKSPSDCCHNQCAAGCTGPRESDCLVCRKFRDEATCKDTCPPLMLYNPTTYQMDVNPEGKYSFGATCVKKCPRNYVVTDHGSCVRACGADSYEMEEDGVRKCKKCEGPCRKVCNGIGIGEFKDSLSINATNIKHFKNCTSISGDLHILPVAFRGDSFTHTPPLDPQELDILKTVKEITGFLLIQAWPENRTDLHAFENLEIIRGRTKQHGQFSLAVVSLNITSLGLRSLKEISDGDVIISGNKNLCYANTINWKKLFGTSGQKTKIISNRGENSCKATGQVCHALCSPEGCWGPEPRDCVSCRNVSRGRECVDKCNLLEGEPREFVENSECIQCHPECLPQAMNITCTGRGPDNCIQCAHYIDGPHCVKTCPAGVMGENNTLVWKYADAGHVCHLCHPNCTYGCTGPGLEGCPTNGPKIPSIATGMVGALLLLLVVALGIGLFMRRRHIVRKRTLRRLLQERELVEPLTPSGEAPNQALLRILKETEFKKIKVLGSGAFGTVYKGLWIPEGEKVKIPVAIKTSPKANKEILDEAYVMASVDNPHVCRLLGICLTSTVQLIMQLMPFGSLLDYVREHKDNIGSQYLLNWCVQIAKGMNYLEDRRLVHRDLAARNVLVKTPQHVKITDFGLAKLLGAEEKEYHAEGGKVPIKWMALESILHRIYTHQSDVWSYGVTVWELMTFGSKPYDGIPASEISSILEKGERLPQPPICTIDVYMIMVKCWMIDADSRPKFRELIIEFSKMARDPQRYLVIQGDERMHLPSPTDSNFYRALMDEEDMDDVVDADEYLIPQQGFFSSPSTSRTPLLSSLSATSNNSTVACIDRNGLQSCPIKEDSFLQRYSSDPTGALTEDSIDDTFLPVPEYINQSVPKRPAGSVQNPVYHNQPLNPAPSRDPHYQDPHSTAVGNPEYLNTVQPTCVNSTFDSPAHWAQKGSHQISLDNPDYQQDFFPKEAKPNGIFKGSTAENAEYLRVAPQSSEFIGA
Description: as §1, §2, §3, §4, §5

[3] = molecular target: T3, various mutants of kinase EGFR (BaF3 cell lines stably transfected with kinase) (Homo sapiens, UniProt P00533, C797S/L858R/T790M); conditions: BaF3 cells stably transfected with EGFR L858R/T790M/C797S, read-out: IC50, growth inhibition, L858R/T790M/C797S
T3 construct: expressed in transfected cells; host or cells: BaF3
Description: as §1, §2, §3, §4, §5

[4] = molecular target: T4, various mutants of kinase EGFR (BaF3 cell lines stably transfected with kinase) (Homo sapiens, UniProt P00533, L858R); conditions: BaF3 cells stably transfected with EGFR L858R, read-out: IC50, growth inhibition, L858R
T4 construct: expressed in transfected cells; host or cells: BaF3
T4 sequence (P00533 25-1210 L858R): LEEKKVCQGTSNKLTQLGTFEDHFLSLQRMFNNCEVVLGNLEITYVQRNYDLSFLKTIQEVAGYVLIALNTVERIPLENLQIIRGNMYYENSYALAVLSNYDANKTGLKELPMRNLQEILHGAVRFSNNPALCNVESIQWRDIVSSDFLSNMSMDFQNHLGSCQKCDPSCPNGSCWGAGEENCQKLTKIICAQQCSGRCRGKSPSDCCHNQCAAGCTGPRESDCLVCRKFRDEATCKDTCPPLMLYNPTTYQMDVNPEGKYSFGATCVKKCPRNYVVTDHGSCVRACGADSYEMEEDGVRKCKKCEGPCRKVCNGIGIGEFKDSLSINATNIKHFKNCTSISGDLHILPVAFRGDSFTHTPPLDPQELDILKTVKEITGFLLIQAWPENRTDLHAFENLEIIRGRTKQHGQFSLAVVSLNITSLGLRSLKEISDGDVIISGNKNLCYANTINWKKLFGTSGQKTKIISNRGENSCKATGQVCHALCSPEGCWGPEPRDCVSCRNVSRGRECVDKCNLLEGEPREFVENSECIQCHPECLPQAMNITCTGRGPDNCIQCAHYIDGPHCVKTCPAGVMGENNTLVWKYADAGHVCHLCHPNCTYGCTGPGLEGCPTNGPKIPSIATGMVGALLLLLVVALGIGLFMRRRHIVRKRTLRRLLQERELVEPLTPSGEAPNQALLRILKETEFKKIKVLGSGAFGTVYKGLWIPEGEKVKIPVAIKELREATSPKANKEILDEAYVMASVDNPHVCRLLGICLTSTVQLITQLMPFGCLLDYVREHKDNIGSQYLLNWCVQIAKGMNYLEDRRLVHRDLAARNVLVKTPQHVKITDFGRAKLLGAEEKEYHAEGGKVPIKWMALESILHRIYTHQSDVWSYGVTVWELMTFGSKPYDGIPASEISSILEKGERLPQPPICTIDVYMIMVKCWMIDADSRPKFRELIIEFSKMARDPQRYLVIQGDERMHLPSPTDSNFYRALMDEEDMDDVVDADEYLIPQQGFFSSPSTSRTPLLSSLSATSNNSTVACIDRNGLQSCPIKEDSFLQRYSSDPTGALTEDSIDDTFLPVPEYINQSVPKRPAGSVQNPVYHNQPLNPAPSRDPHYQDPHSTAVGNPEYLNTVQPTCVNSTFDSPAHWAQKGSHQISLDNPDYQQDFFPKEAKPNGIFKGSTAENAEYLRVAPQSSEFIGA
Description: as §1, §2, §3, §4, §5

[5] = molecular target: T5, various mutants of kinase EGFR (BaF3 cell lines stably transfected with kinase) (Homo sapiens, UniProt P00533); conditions: BaF3 cells stably transfected with EGFR Δ19Del, read-out: IC50, growth inhibition, Δ19Del
T5 construct: other: BaF3 cells stably transfected with EGFR Δ19Del; MTS, 48 h; other: BaF3 cell line stably transfected with EGFR Δ19Del
T5 sequence (P00533 with tags, fused parts or gaps DEL746-750): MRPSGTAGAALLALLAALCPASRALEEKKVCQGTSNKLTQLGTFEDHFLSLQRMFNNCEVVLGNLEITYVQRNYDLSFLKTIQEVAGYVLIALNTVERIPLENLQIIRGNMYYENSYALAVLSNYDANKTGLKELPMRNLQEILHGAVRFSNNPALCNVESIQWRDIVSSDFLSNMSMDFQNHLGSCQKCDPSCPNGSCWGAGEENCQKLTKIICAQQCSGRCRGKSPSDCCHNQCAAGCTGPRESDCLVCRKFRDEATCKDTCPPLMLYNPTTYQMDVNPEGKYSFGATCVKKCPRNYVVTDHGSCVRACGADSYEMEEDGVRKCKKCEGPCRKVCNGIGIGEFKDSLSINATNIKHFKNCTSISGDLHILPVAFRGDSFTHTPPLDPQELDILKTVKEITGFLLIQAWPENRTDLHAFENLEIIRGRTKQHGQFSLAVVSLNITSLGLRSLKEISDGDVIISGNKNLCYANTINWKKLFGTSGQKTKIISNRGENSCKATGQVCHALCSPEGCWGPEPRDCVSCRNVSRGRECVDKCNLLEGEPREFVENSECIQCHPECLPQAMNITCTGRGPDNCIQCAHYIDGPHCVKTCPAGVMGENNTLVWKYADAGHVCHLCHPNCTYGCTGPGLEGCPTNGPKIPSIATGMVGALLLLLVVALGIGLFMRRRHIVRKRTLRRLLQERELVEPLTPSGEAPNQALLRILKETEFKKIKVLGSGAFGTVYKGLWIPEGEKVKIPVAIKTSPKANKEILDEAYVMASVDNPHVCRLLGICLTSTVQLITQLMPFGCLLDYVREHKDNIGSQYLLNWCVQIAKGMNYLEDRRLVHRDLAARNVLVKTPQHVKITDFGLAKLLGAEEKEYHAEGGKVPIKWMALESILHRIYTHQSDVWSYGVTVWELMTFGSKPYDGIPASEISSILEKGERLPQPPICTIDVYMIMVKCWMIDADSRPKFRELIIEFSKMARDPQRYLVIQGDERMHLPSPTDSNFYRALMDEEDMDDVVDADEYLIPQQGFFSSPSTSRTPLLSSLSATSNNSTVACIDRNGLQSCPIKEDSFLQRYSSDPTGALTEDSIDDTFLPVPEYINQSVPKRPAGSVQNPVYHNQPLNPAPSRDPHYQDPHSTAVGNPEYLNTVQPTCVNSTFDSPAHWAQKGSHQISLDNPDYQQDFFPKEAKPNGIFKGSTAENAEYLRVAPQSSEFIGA
Description: as §1, §2, §3, §4, §5

[6] = molecular target: T6, various mutants of kinase EGFR (BaF3 cell lines stably transfected with kinase) (Homo sapiens, UniProt P00533, T790M, form not given); conditions: BaF3 cells stably transfected with EGFR Δ19Del/T790M, read-out: IC50, growth inhibition, Δ19Del/T790M
T6 construct: other: BaF3 cells stably transfected with EGFR Δ19Del/T790M; MTS, 48 h; other: BaF3 cell line stably transfected with EGFR Δ19Del/T790M; MTS, 48
Description: as §1, §2, §3, §4, §5

Row | SMILES | IC50 [1] [µM] | IC50 [2] [µM] | IC50 [3] [µM] | IC50 [4] [µM] | IC50 [5] [µM] | IC50 [6] [µM]
1 | COc1cc(N2CCC(N3CCN(C)CC3)CC2)c(C)cc1Nc1ncc([N+](=O)[O-])c(Nc2ccc3nccnc3c2N(C)S(C)(=O)=O)n1 [Compound I-31] | ≤ 0.05 | ≤ 0.05 | ≤ 0.05 | ≤ 0.05 | 0.05 to 0.5 | 0.05 to 0.5
2 | CCc1cc(Nc2ncc([N+](=O)[O-])c(Nc3ccc4nccnc4c3N(C)S(C)(=O)=O)n2)c(OC)cc1N1CCC(N2CCN(C)CC2)CC1 [Compound I-32] | ≤ 0.05 | ≤ 0.05 | ≤ 0.05 | ≤ 0.05 | ≤ 0.05 | ≤ 0.05
3 | COc1cc(N2CCC(N3CCN(C)CC3)CC2)ccc1Nc1ncc(C(F)(F)F)c(Nc2ccc3nccnc3c2N(C)S(C)(=O)=O)n1 [Compound I-33] | ≤ 0.05 | ≤ 0.05 | 0.05 to 0.5 | ≤ 0.05 | 0.05 to 0.5 | ≤ 0.05
4 | COc1cc(N2CCC(N3CCN(C)CC3)CC2)c(C)cc1Nc1ncc(C(F)(F)F)c(Nc2ccc3nccnc3c2N(C)S(C)(=O)=O)n1 [Compound I-34] | ≤ 0.05 | ≤ 0.05 | ≤ 0.05 | ≤ 0.05 | ≤ 0.05 | ≤ 0.05
5 | CCc1cc(Nc2ncc(C(F)(F)F)c(Nc3ccc4nccnc4c3N(C)S(C)(=O)=O)n2)c(OC)cc1N1CCC(N2CCN(C)CC2)CC1 [Compound I-35] | ≤ 0.05 | ≤ 0.05 | ≤ 0.05 | ≤ 0.05 | ≤ 0.05 | ≤ 0.05
6 | Cc1cc(Nc2ncc(Br)c(Nc3ccc4nccnc4c3N(C)S(C)(=O)=O)n2)c(OC(C)C)cc1C1CCN(C)CC1 [Compound I-37] | 0.05 to 0.5 | ≤ 0.05 | 0.05 to 0.5 | 0.5 to 2.5 | 0.5 to 2.5 | 0.05 to 0.5
7 | COc1cc(N2CCN(C)CC2)ccc1Nc1ncc(Br)c(Nc2ccc3nccnc3c2N(C)S(C)(=O)=O)n1 [Compound I-38] | ≤ 0.05 | ≤ 0.05 | ≤ 0.05 | 0.05 to 0.5 | 0.05 to 0.5 | ≤ 0.05
8 | CCOc1cc(N2CCN(C)CC2)ccc1Nc1ncc(Br)c(Nc2ccc3nccnc3c2N(C)S(C)(=O)=O)n1 [Compound I-39] | 0.05 to 0.5 | ≤ 0.05 | ≤ 0.05 | 0.5 to 2.5 | 0.5 to 2.5 | 0.05 to 0.5
9 | CN1CCN(c2ccc(Nc3ncc(Br)c(Nc4ccc5nccnc5c4N(C)S(C)(=O)=O)n3)cc2)CC1 [Compound I-40] | ≤ 0.05 | ≤ 0.05 | ≤ 0.05 | ≤ 0.05 | ≤ 0.05 | ≤ 0.05
10 | COc1cc(N2CCC(N3CCCC3)CC2)ccc1Nc1ncc(Br)c(Nc2ccc3nccnc3c2N(C)S(C)(=O)=O)n1 [Compound I-41] | ≤ 0.05 | ≤ 0.05 | ≤ 0.05 | ≤ 0.05 | ≤ 0.05 | ≤ 0.05
11 | COc1cc(N2CCC(N(C)C)C2)ccc1Nc1ncc(Br)c(Nc2ccc3nccnc3c2N(C)S(C)(=O)=O)n1 (stereo not drawn) [Compound I-43] | ≤ 0.05 | ≤ 0.05 | ≤ 0.05 | 0.05 to 0.5 | 0.05 to 0.5 | ≤ 0.05
12 | COc1cc(N2CCC(O)CC2)ccc1Nc1ncc(Br)c(Nc2ccc3nccnc3c2N(C)S(C)(=O)=O)n1 [Compound I-44] | ≤ 0.05 | ≤ 0.05 | ≤ 0.05 | 0.05 to 0.5 | 0.05 to 0.5 | ≤ 0.05
13 | COc1cc(N2CCOCC2)ccc1Nc1ncc(Br)c(Nc2ccc3nccnc3c2N(C)S(C)(=O)=O)n1 [Compound I-45] | 0.05 to 0.5 | ≤ 0.05 | ≤ 0.05 | 0.05 to 0.5 | 0.05 to 0.5 | 0.05 to 0.5
14 | COc1cc(C(=O)N2CCC(N3CCN(C)CC3)CC2)ccc1Nc1ncc(Br)c(Nc2ccc3nccnc3c2N(C)S(C)(=O)=O)n1 [Compound I-48] | 0.05 to 0.5 | ≤ 0.05 | ≤ 0.05 | 0.05 to 0.5 | 0.05 to 0.5 | 0.05 to 0.5
15 | CN1CCN(S(=O)(=O)c2ccc(Nc3ncc(Br)c(Nc4ccc5nccnc5c4N(C)S(C)(=O)=O)n3)cc2)CC1 [Compound I-49] | 0.05 to 0.5 | 0.05 to 0.5 | 0.05 to 0.5 | 0.05 to 0.5 | 0.05 to 0.5 | 0.05 to 0.5
16 | CN(c1c(Nc2nc(Nc3ccc(S(=O)(=O)NC4CC4)cc3)ncc2Br)ccc2nccnc12)S(C)(=O)=O [Compound I-50] | ≤ 0.05 | 0.5 to 2.5 | 0.05 to 0.5 | 0.05 to 0.5 | 0.05 to 0.5 | 0.05 to 0.5
17 | COc1nc(N2CCN(C)CC2)ccc1Nc1ncc(Br)c(Nc2ccc3nccnc3c2N(C)S(C)(=O)=O)n1 [Compound I-55] | 0.05 to 0.5 | 0.05 to 0.5 | 0.05 to 0.5 | 0.05 to 0.5 | 0.05 to 0.5 | 0.05 to 0.5
18 | CN1CCN(c2ccc(Nc3ncc(Br)c(Nc4ccc5nccnc5c4N(C)S(C)(=O)=O)n3)cn2)CC1 [Compound I-56] | ≤ 0.05 | ≤ 0.05 | ≤ 0.05 | ≤ 0.05 | ≤ 0.05 | ≤ 0.05
19 | Cc1ccc(Nc2ncc(Br)c(Nc3ccc4nccnc4c3N(C)S(C)(=O)=O)n2)cn1 [Compound I-63] | ≤ 0.05 | 0.05 to 0.5 | 0.05 to 0.5 | 0.05 to 0.5 | ≤ 0.05 | ≤ 0.05
20 | CN(c1c(Nc2nc(Nc3ccn(C)n3)ncc2Br)ccc2nccnc12)S(C)(=O)=O [Compound I-66] | ≤ 0.05 | 0.05 to 0.5 | 0.05 to 0.5 | 0.05 to 0.5 | 0.05 to 0.5 | 0.05 to 0.5
21 | CN(c1c(Nc2nc(Nc3cnn(C)c3)ncc2Br)ccc2nccnc12)S(C)(=O)=O [Compound I-67] | ≤ 0.05 | 0.05 to 0.5 | ≤ 0.05 | 0.05 to 0.5 | ≤ 0.05 | ≤ 0.05
22 | CN(c1c(Nc2nc(NC3CC3)ncc2Br)ccc2nccnc12)S(C)(=O)=O [Compound I-73] | 0.05 to 0.5 | 0.5 to 2.5 | 0.5 to 2.5 | 0.5 to 2.5 | 0.5 to 2.5 | 0.05 to 0.5
23 | CN(c1c(Nc2nc(Nc3cccc(N4CCC(O)CC4)c3)ncc2Br)ccc2nccnc12)S(C)(=O)=O [Compound I-76] | ≤ 0.05 | 0.05 to 0.5 | ≤ 0.05 | 0.5 to 2.5 | 0.05 to 0.5 | 0.05 to 0.5
24 | COc1ccc(N2CCC(O)CC2)cc1Nc1ncc(Br)c(Nc2ccc3nccnc3c2N(C)S(C)(=O)=O)n1 [Compound I-77] | ≤ 0.05 | ≤ 0.05 | ≤ 0.05 | 0.05 to 0.5 | 0.05 to 0.5 | ≤ 0.05
25 | CN1CCN(C2CCN(c3cccc(Nc4ncc(Br)c(Nc5ccc6nccnc6c5N(C)S(C)(=O)=O)n4)c3)CC2)CC1 [Compound I-78] | ≤ 0.05 | 0.05 to 0.5 | ≤ 0.05 | 0.05 to 0.5 | 0.05 to 0.5 | 0.05 to 0.5
26 | CN1CCN(C(=O)c2cccc(Nc3ncc(Br)c(Nc4ccc5nccnc5c4N(C)S(C)(=O)=O)n3)c2)CC1 [Compound I-80] | ≤ 0.05 | 0.5 to 2.5 | 0.05 to 0.5 | 0.05 to 0.5 | 0.05 to 0.5 | 0.05 to 0.5
